From PubChem BioAssay (NCI) come the findings set out here.

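96-well plates; 48 h exposure; 5 concentrations. Endpoints by linear interpolation between flanking doses. Not reached: highest tested concentration assigned. TGI is the concentration that stops growth completely.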

The first assay concerns DU-145 prostate. Description: growth of human tumour cells (NCI), 48 h.
Take `COC(=O)C1(C(=O)OC)CC2=C(S(=O)(=O)c3ccccc3)C[C@H](S(=O)(=O)c3ccccc3)[C@H]2C1`: the TGI is above 100 µM.

In a further assay the test system is SK-MEL-2 melanoma. Description: growth of human tumour cells (NCI), 48 h.
`Nc1nc2cc3nc(N)c(N)nc3cc2nc1N` registered a TGI above 100 µM.

`CCOC(=O)CNC(=O)C(CSCc1ccc(Br)cc1)NC(=O)CCC(N)C(=O)OCC` (stereo not drawn) gave a TGI above 50 µM.

Consider `COC(=O)C1(C(=O)OC)CC2=C(S(=O)(=O)c3ccccc3)C[C@H](S(=O)(=O)c3ccccc3)[C@H]2C1`, for which the TGI is above 100 µM.

For a further assay, the system named is SK-MEL-5 melanoma. Description: growth of human tumour cells (NCI), 48 h.
In the case of `COc1cc2c(cc1OC)C1=Cc3cc(OC)c(OC)cc3C(C)N1C=C2` (stereo not drawn), the TGI was above 100 µM.

In turn, `Nc1nc2cc3nc(N)c(N)nc3cc2nc1N` returned a TGI above 100 µM.

`CCOC(=O)CNC(=O)C(CSCc1ccc(Br)cc1)NC(=O)CCC(N)C(=O)OCC` (stereo not drawn) showed a TGI above 50 µM.

With `COC(=O)C1(C(=O)OC)CC2=C(S(=O)(=O)c3ccccc3)C[C@H](S(=O)(=O)c3ccccc3)[C@H]2C1`, the TGI is above 100 µM.

The next assay relates to PC-3 prostate. Description: growth of human tumour cells (NCI), 48 h.
In the case of `COc1cc2c(cc1OC)C1=Cc3cc(OC)c(OC)cc3C(C)N1C=C2` (stereo not drawn), the TGI was above 100 µM.

Take `Nc1nc2cc3nc(N)c(N)nc3cc2nc1N`: the TGI is above 100 µM.

As for `CCOC(=O)CNC(=O)C(CSCc1ccc(Br)cc1)NC(=O)CCC(N)C(=O)OCC` (stereo not drawn), the TGI is above 50 µM.

`COC(=O)C1(C(=O)OC)CC2=C(S(=O)(=O)c3ccccc3)C[C@H](S(=O)(=O)c3ccccc3)[C@H]2C1` came in with a TGI above 100 µM.

The subject of the next assay is COLO 205 colon. Description: growth of human tumour cells (NCI), 48 h.
In turn, `COc1cc2c(cc1OC)C1=Cc3cc(OC)c(OC)cc3C(C)N1C=C2` (stereo not drawn) had a TGI above 100 µM.

The compound `Nc1nc2cc3nc(N)c(N)nc3cc2nc1N` gave a TGI above 100 µM.

For the compound `CCOC(=O)CNC(=O)C(CSCc1ccc(Br)cc1)NC(=O)CCC(N)C(=O)OCC` (stereo not drawn), the TGI is above 50 µM.

`COC(=O)C1(C(=O)OC)CC2=C(S(=O)(=O)c3ccccc3)C[C@H](S(=O)(=O)c3ccccc3)[C@H]2C1` showed a TGI above 100 µM.

The next assay has as its system HL-60(TB) leukemia. Description: growth of human tumour cells (NCI), 48 h.
Compound `COc1cc2c(cc1OC)C1=Cc3cc(OC)c(OC)cc3C(C)N1C=C2` (stereo not drawn) yielded a TGI above 100 µM.

Compound `Nc1nc2cc3nc(N)c(N)nc3cc2nc1N` registered a TGI above 100 µM.

The test system of another assay is LOX IMVI melanoma. Description: growth of human tumour cells (NCI), 48 h.
In the case of `Nc1nc2cc3nc(N)c(N)nc3cc2nc1N`, the TGI was above 100 µM.

As for `COC(=O)C1(C(=O)OC)CC2=C(S(=O)(=O)c3ccccc3)C[C@H](S(=O)(=O)c3ccccc3)[C@H]2C1`, the TGI is above 100 µM.

The subject of another assay is SNB-19 CNS. Description: growth of human tumour cells (NCI), 48 h.
`COc1cc2c(cc1OC)C1=Cc3cc(OC)c(OC)cc3C(C)N1C=C2` (stereo not drawn): the TGI was above 100 µM.

Compound `Nc1nc2cc3nc(N)c(N)nc3cc2nc1N` gave a TGI above 100 µM.

In the case of `CCOC(=O)CNC(=O)C(CSCc1ccc(Br)cc1)NC(=O)CCC(N)C(=O)OCC` (stereo not drawn), the TGI was above 50 µM.

Turning to `COC(=O)C1(C(=O)OC)CC2=C(S(=O)(=O)c3ccccc3)C[C@H](S(=O)(=O)c3ccccc3)[C@H]2C1`, the TGI is above 100 µM.

The test system of another assay is HCT-116 colon. Description: growth of human tumour cells (NCI), 48 h.
In turn, `COc1cc2c(cc1OC)C1=Cc3cc(OC)c(OC)cc3C(C)N1C=C2` (stereo not drawn) registered a TGI above 100 µM.

`Nc1nc2cc3nc(N)c(N)nc3cc2nc1N` showed a TGI above 100 µM.

`CCOC(=O)CNC(=O)C(CSCc1ccc(Br)cc1)NC(=O)CCC(N)C(=O)OCC` (stereo not drawn): the TGI was above 50 µM.

As for `COC(=O)C1(C(=O)OC)CC2=C(S(=O)(=O)c3ccccc3)C[C@H](S(=O)(=O)c3ccccc3)[C@H]2C1`, the TGI is above 100 µM.

The subject of another assay is T-47D breast. Description: growth of human tumour cells (NCI), 48 h.
In the case of `COc1cc2c(cc1OC)C1=Cc3cc(OC)c(OC)cc3C(C)N1C=C2` (stereo not drawn), the TGI is above 100 µM.

The compound `COC(=O)C1(C(=O)OC)CC2=C(S(=O)(=O)c3ccccc3)C[C@H](S(=O)(=O)c3ccccc3)[C@H]2C1` showed a TGI of 92.6 µM.

A further assay has as its system NCI-H226 lung. Description: growth of human tumour cells (NCI), 48 h.
In turn, `COc1cc2c(cc1OC)C1=Cc3cc(OC)c(OC)cc3C(C)N1C=C2` (stereo not drawn) showed a TGI above 100 µM.

On to `Nc1nc2cc3nc(N)c(N)nc3cc2nc1N`, for which the TGI was above 100 µM.

As for `COC(=O)C1(C(=O)OC)CC2=C(S(=O)(=O)c3ccccc3)C[C@H](S(=O)(=O)c3ccccc3)[C@H]2C1`, the TGI is above 100 µM.

A further assay relates to OVCAR-3 ovarian. Description: growth of human tumour cells (NCI), 48 h.
On to `COc1cc2c(cc1OC)C1=Cc3cc(OC)c(OC)cc3C(C)N1C=C2` (stereo not drawn), for which the TGI is above 100 µM.

The compound `Nc1nc2cc3nc(N)c(N)nc3cc2nc1N` showed a TGI above 100 µM.

The compound `CCOC(=O)CNC(=O)C(CSCc1ccc(Br)cc1)NC(=O)CCC(N)C(=O)OCC` (stereo not drawn) registered a TGI above 50 µM.

The compound `COC(=O)C1(C(=O)OC)CC2=C(S(=O)(=O)c3ccccc3)C[C@H](S(=O)(=O)c3ccccc3)[C@H]2C1` yielded a TGI above 100 µM.

A further assay relates to CCRF-CEM leukemia. Description: growth of human tumour cells (NCI), 48 h.
Regarding `COc1cc2c(cc1OC)C1=Cc3cc(OC)c(OC)cc3C(C)N1C=C2` (stereo not drawn), the TGI is above 100 µM.

With `Nc1nc2cc3nc(N)c(N)nc3cc2nc1N`, the TGI is above 100 µM.

As to `CCOC(=O)CNC(=O)C(CSCc1ccc(Br)cc1)NC(=O)CCC(N)C(=O)OCC` (stereo not drawn), the TGI was above 50 µM.

Regarding `COC(=O)C1(C(=O)OC)CC2=C(S(=O)(=O)c3ccccc3)C[C@H](S(=O)(=O)c3ccccc3)[C@H]2C1`, the TGI was above 100 µM.

A further assay concerns SNB-75 CNS. Description: growth of human tumour cells (NCI), 48 h.
In turn, `COc1cc2c(cc1OC)C1=Cc3cc(OC)c(OC)cc3C(C)N1C=C2` (stereo not drawn) had a TGI above 100 µM.

As for `Nc1nc2cc3nc(N)c(N)nc3cc2nc1N`, the TGI was above 100 µM.

`CCOC(=O)CNC(=O)C(CSCc1ccc(Br)cc1)NC(=O)CCC(N)C(=O)OCC` (stereo not drawn) came in with a TGI above 50 µM.

`COC(=O)C1(C(=O)OC)CC2=C(S(=O)(=O)c3ccccc3)C[C@H](S(=O)(=O)c3ccccc3)[C@H]2C1` registered a TGI of 93.6 µM.

The test system of another assay is NCI-H460 lung. Description: growth of human tumour cells (NCI), 48 h.
For the compound `COc1cc2c(cc1OC)C1=Cc3cc(OC)c(OC)cc3C(C)N1C=C2` (stereo not drawn), the TGI was above 100 µM.

`Nc1nc2cc3nc(N)c(N)nc3cc2nc1N` displayed a TGI above 100 µM.

`CCOC(=O)CNC(=O)C(CSCc1ccc(Br)cc1)NC(=O)CCC(N)C(=O)OCC` (stereo not drawn) displayed a TGI above 50 µM.

For the compound `COC(=O)C1(C(=O)OC)CC2=C(S(=O)(=O)c3ccccc3)C[C@H](S(=O)(=O)c3ccccc3)[C@H]2C1`, the TGI was above 100 µM.

In the next assay the test system is OVCAR-8 ovarian. Description: growth of human tumour cells (NCI), 48 h.
As to `COc1cc2c(cc1OC)C1=Cc3cc(OC)c(OC)cc3C(C)N1C=C2` (stereo not drawn), the TGI is above 100 µM.

Consider `Nc1nc2cc3nc(N)c(N)nc3cc2nc1N`, for which the TGI is above 100 µM.

Take `CCOC(=O)CNC(=O)C(CSCc1ccc(Br)cc1)NC(=O)CCC(N)C(=O)OCC` (stereo not drawn): the TGI is above 50 µM.

Turning to `COC(=O)C1(C(=O)OC)CC2=C(S(=O)(=O)c3ccccc3)C[C@H](S(=O)(=O)c3ccccc3)[C@H]2C1`, the TGI was above 100 µM.
